In patent US11124483B2, “HER3 ligands and uses thereof” (THE REGENTS OF THE UNIVERSITY OF CALIFORNIA, priority 2015, dated 2021):

Key:
[1] = target: Src kinase (UniProt P00523); assay: In vitro Src kinase assay (30-min); assay type: biochemical; conditions: percent activity vs. DMSO control
Procedure: In vitro Kinase Assays. In vitro kinase assays with the HER2 kinase domain (SignalChem) were performed in triplicate as follows. To 9 μL of a 2.5× solution of kinase and substrate in reaction buffer was added 3 μL of a 5×DMSO or inhibitor dilution in 10% DMSO:water. The inhibitor/kinase solution was incubated at room temperature for 10 minutes. The kinase assay was initiated by the addition of 3 μL of a 5× solution of ATP, and ran for 15 minutes. The final reaction conditions were 50 mM Tris (pH7.4), 5 mM MnCl2, 0.01% Tween-20, 2 mM DTT, 100 μM E4Y substrate (SignalChem), 15 nM HER2, 2% DMSO, 50 μM ATP, and 1 μCi γ^32P-ATP. After 15 minutes, 3 μL of each reaction was pipetted onto phosphocellulose sheets (P81, Whatman) and allowed to dry. The sheets were then washed 4×5 min with a solution of 0.5% phosphoric acid, dried, and exposed to a phosphor screen overnight. Src Kinase assays were conducted as previously described^2. Phosphorimaging was conducted on a Typhoon 9500, image intensities were quantified in ImageQuant 5.2, normalized to the DMSO control and plotted in GraphPad Prism 6.

[2] = target: T1, HER3 TKD (Homo sapiens, UniProt P21860); assay: HER3 TKD Thermofluor assay; assay type: binding; conditions: 20 μM inhibitor, 2 μM kinase, vs DMSO
T1 construct: made in house
T1 sequence (P21860 709-966 limits assumed): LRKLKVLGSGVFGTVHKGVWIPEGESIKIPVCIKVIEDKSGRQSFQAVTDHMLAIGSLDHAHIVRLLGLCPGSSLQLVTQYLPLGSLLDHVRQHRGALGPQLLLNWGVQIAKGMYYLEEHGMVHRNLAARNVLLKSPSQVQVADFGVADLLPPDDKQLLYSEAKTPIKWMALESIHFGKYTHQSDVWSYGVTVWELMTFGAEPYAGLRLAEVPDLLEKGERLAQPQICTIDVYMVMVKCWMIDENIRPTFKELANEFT
Procedure: HER3 Thermofluor Assay. Wt HER3 TKD was purified according to the previously published protocol^1. Thermofluor reactions were performed in duplicate and set up as follows. 1 μL of an inhibitor or DMSO dilution in 40% DMSO:water was added to 19 μL of the HER3 kinase domain in reaction buffer. The final reaction solution contained 100 mM MOPS, 200 mM NaCl, 5% glycerol, 5 mM MgCl2, 0.1 mM DTT, 5×SYPRO Orange, 2 μM kinase, 2% DMSO and 20 μM inhibitor in the wells of a 96-well, low profile, white, PCR plate (USA scientific). The solution was pipetted up and down to mix, sealed with TempAssure clear PCR flat caps (USA Scientific), centrifuged at 500×g for 30 s, and heated in a Stratagene Mx3005P RT-PCR machine from 25° C. to 95° C. in 0.5° C. increments every 30 s after an initial incubation at 25° C. for 10 min. Fluorescence was measured at the end of each 30 s period with an excitation wavelength of 492 nm and an emission wavelength of 610 nm. To obtain the melting temperature, fluorescent signals were normalized to the maximum fluorescent signal for that well. Values after the well had reached a maximum signal were discarded and the signals were fit to the Boltzmann equation in Graphpad Prism 6. ΔTm was calculated as the difference in melting temperature between the compound-treated kinase compared to the DMSO control.

SMILES | IC50 [1] | binding to HER3 TKD (percent unfolded protein vs. temperature) [2]
COc1cc2ncc(C#N)c(Nc3ccc(Oc4cccc(NC(=O)Nc5cccc(C(F)(F)F)c5)c4)cc3)c2cc1OC [50A, 1-(3-(4-((3-cyano-6,7-dimethoxyquinolin-4-yl)amino)phenoxy)phenyl)-3-(3-(trifluoromethyl)phenyl)urea] | 3.3 nM | particularly tight binding
COc1cc(Nc2c(C#N)cnc3cc(OCCCN4CCN(C)CC4)c(OC)cc23)c(Cl)cc1Cl [bosutinib, reference compound] | 3.3 nM | –
